Entries after “also recorded” stand apart in the source; their conditions may differ.
Assays:
in vitro = type: cell-based; conditions: human, arpe-19 cells, EC50 (cytotoxicity)
Method: (§1) The liposomal complexes were prepared as follows. Cycloretinal (10 mg), β-Ionone (20 mg), and 2,4-Dimethylbenzaldehyde (20 mg) were dissolved separately in ethanol (1 mL). Glyoxal (5.80 mg), methylglyoxal (7.21 mg), and β-cyclocitral (15.2 mg) were dissolved separately in chloroform (1 mL). A liposome solution of cholesterol (112 mg), Tween 80 (504 mg), and L-α-phosphatidylcholine (730 mg) were dissolved in 16 mL of chloroform. Liposome solution (2 mL) was added to each of the compounds. The solvents were removed under vacuum and charged with nitrogen. Each of the flasks were then mixed with 5 mL of water and stirred at 60° C. for 1 h. Each solution was placed on ice and sonicated with a probe sonicator (15 seconds on/15 seconds off) for 5 min. The solutions were centrifuged at 11,000×g for 30 min and filtered through a 0.2 μm filter. Each sample (10 μL) was added to 1 mL ethanol and measured by absorption via UV-Vis spectroscopy. […]
Following 24 hour incubation with the liposomal complexes, light induced cell damage was measured by exposing cells to 10 min of irradiation (70 W lamp) through a 430 nm bandpass filter (Thor labs, 430±2 nm). […]
(§2) Cell viability was assessed with the MTT cell proliferation assay. […] The absorbance was subsequently evaluated at 570 nm utilizing a microplate reader (quant absorbance plate reader, BioTek Instruments Inc.) […]

[1] = MsP1 catalyzed degradation of cycloretinal; visual inspection and HPLC time course of degradation products; type: biochemical; conditions: at 12 hours
Method: After 24 hours of incubation, broth cultures were transferred to sterile Eppendorf tubes and the organics extracted using an equal volume of dichloromethane (DCM) through vigorous vortexing. The organics were separated by centrifugation (13,000 rpm for 20 minutes), retrieved with a needle, and subsequently concentrated under nitrogen. The dried product was solubilized in 20 μL DCM and analyzed by high performance liquid chromatography (HPLC). HPLC analysis was performed on a Varian Prostar system equipped with a Phenomenex 5 μm 100 Å normal phase column (250×10 mm×5 micron), a UV detector set at 320 nm wavelength and mobile phase comprising 97% DCM and 3% methanol with flow rate of 2 mL/min. Products eluted were further analyzed by GC-MS.
Substrate emulsions (0.01%) were prepared, and Tween 40 was used to enhance solubilization of compounds, or otherwise dissolved in ethanol or DMSO. […]
To generate a standard curve for the degradation products, different concentrations of 2,4-dimethyl benzaldehyde (2, 4, 6, 8, 10 μg/20 μL) and β-ionone (1, 2, 3, 4 μg/20 μL) were analyzed by HPLC under the same conditions as as detailed in Example 3.
To identify the degradation products, cycloretinal was incubated for 1 hour with MsP1 in the presence of hydrogen peroxide. Following incubation, the reaction mixture was extracted and analyzed by GC-MS. […]

ARPE-19 cells = assay: ARPE-19 cytotoxicity of liposomal complexes, MTT assay; type: cell-based; conditions: similar concentrations as cycloretinal, 96-h period
Method: as §1, with “spectroscopy. The extinction coefficients were 9970 M^−1cm^−1, 26343 M^−1cm^−1, and 13476 M^−1cm^−1 for cycloretinal, 2,4-dimethylbenzaldehyde, and β-ionone, respectively.” for “spectroscopy.”
as §2

Compound	CC50 at 24 h (in vitro)	level of degradation product in MsP1/cycloretinal reaction (HPLC, standard curve) [1]	impact on cell viability / toxicity to ARPE-19 cells (ARPE-19 cells)
CC(C=CC1=C(C)CCCC1(C)C)=CC=CC1=CC=C(C=O)C(C)(C=CC=C(C)C=CC2=C(C)CCCC2(C)C)C1 (stereo not drawn) [cycloretinal]	93 ± 6.1 µM		
CC(=O)/C=C/C1=C(C)CCCC1(C)C [β-ionone]		undetectable levels	no impact on cell viability; also recorded: do not exhibit toxicity

Source: patent US20260130973A1, “COMPOSITIONS AND METHODS FOR DEGRADATION OF LIPOFUSCIN CYCLORETINAL BY MSP1” (THE TEXAS A&M UNIVERSITY SYSTEM, priority 2022, published 2026)
